Measurements from the NIST ThermoML archive (doi:10.1016/j.jct.2009.05.009).

Test: xn = mol fraction of the nth substance listed
Conditions: 101.3 kPa, Liquid, Vibrating tube method

CCOS(=O)(=O)[O-].CCn1cc[n+](C)c1 [1-ethyl-3-methylimidazolium ethyl sulfate] + O
mass density [kg/m3]
Conditions | 293.15 K | 298.15 K | 303.15 K | 308.15 K | 313.15 K | 318.15 K
x2 = 0 | 1242.4 | 1239.4 | 1236.3 | 1233.3 | 1230.2 | 1227.2
x2 = 0.0514 | 1241.4 | 1238.3 | 1235.2 | 1232.2 | 1229.1 | 1226.1
x2 = 0.13 | 1239.8 | 1236.8 | 1233.6 | 1230.6 | 1227.4 | 1224.4
x2 = 0.1783 | 1238.8 | 1235.7 | 1232.6 | 1229.5 | 1226.3 | 1223.3
x2 = 0.2168 | 1237.8 | 1234.7 | 1231.5 | 1228.5 | 1225.4 | 1222.3
x2 = 0.2642 | 1236.4 | 1233.3 | 1230.2 | 1227.1 | 1223.9 | 1220.8
x2 = 0.3054 | 1235 | 1232 | 1228.8 | 1225.8 | 1222.6 | 1219.5
x2 = 0.3568 | 1233 | 1230 | 1226.9 | 1223.9 | 1220.7 | 1217.6
x2 = 0.4008 | 1231.2 | 1228 | 1225 | 1221.9 | 1218.7 | 1215.6
x2 = 0.4613 | 1228.1 | 1225.2 | 1222 | 1218.9 | 1215.6 | –
x2 = 0.5002 | 1225.9 | 1222.9 | 1219.7 | 1216.6 | 1213.4 | –
x2 = 0.5584 | 1221.8 | 1218.8 | 1215.6 | 1212.4 | 1209.2 | –
x2 = 0.6124 | 1217.1 | 1213.9 | 1210.8 | 1207.6 | 1204.4 | –
x2 = 0.6698 | 1210.7 | 1207.4 | 1204.1 | 1200.9 | 1197.6 | –
x2 = 0.7125 | 1204.3 | 1200.8 | 1197.6 | 1194.3 | 1190.9 | –
x2 = 0.7635 | 1194.2 | 1190.4 | 1187.1 | 1184 | 1180.6 | –
x2 = 0.8006 | 1184.2 | 1180.5 | 1177.2 | 1173.6 | 1170.3 | –
x2 = 0.8497 | 1165.4 | 1162.1 | 1158.8 | 1155.5 | 1152.3 | –
x2 = 0.8963 | 1139.3 | 1135.6 | 1132.8 | 1129 | 1126 | –
